{
  "source": "patent US12263155B2",
  "about": "“Combinations of monoamine oxidase inhibitors and serotonin receptor agonists and their therapeutic use” (Remedi, Inc., priority 2022, dated 2025)",
  "target": "T1, brain MAO-A (Rattus norvegicus, UniProt P21396)",
  "T1 construct": "prepared from brain homogenates of male Sprague-Dawley rats, served as the source of MAO-A enzymatic activity; from tissue",
  "T1 sequence (P21396 1-526)": "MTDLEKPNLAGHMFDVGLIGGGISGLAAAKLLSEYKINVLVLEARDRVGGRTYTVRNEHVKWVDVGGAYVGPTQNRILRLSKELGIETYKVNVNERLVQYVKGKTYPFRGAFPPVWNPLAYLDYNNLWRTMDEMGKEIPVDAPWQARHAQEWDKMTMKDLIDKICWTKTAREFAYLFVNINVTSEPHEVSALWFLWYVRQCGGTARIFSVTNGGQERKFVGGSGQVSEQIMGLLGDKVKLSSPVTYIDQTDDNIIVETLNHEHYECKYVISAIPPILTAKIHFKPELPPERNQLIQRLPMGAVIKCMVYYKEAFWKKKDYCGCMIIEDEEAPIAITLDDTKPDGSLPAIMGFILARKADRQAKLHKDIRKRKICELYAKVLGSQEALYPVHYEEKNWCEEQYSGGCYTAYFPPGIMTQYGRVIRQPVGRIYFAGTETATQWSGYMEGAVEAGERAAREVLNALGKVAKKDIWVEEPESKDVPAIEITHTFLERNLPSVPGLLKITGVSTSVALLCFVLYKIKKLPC",
  "experiment": "Ex vivo brain MAO-A activity after oral CX157 in rats",
  "design": "mean brain MAO-A activity (Avg.) / brain MAO-A activity, single experimental day: unit not given here",
  "conditions": "for mean brain MAO-A activity (Avg.): average of 4 days",
  "experimental": "Methods: Sprague-Dawley male rats (average weight of 190 g) were segregated into three groups for testing of the effects of CX157 on brain MAO-A enzyme activity. The three groups consisted of animals who received either 1, 5, and 10 mg/kg of CX157. Each group consisted of twenty-four subjects. Test animals were administered the doses of CX157 orally, by the gavage method in accordance with White & Scates, Drug Dev Res. 1992; 25:191-199.\nIn each drug group, four animals were sacrificed at each time period (0, 2, 4, 8, 18 and 24 hours) on four different days following drug administration. Brains were removed from the animal, bisected, frozen immediately on dry ice and placed in a −80° C. freezer. Trunk blood was collected in tubes containing sodium heparin and centrifuged at 5000 rpm for 10 minutes at 4° C. to extract the plasma. The frozen brain samples were thawed, weighed, and homogenized (3:1 tissue weight/buffer volume) in 0.25 M sucrose, containing 50 mM KHPO4(pH 7.4), with a Teflon glass homogenizer. Deprenyl HCl (at a final concentration of 100 nM) was added to each sample of homogenate to block MAO-B enzyme activity. A volume of 400 μl of homogenate was pipetted into each assay tube. A 50 μl volume of 500 μM [^14C]-5HT (specific activity of 1.6 Curies/mmol) was added to each assay tube to give a final concentration of […]. Blank assay tubes (included to correct for nonspecific deamination of [^14C]-5HT) also contained 50 μl of RO-41-1049, while total activity assay tubes (specific and nonspecific deaminating activity) contained 50 μl of buffer. The final concentration of RO-41-1049 in the blank activity tubes was 100 μM. This yielded a total assay volume of 500 μl. All assays were incubated for 7.5 minutes at 37° C. The reaction was terminated by the addition of 500 μl of 2 M citric acid. The deaminated [^14C]-5HT metabolite was extracted into a liquid scintillation fluor mixture of xylene/ethyl acetate and 0.4% PPO and quantified using a liquid scintillation spectrometer.\nThe specific activity of MAO-A in each of the samples was determined by subtraction of the values obtained in the nonspecific tubes from those in the total activity tubes. Methylcellulose was prepared by weighing 17.5 grams in a weigh boat on a Mettler balance and poured into a 4 liter flask. Two liters of distilled water was added to the 4 liter flask. The mixture was placed on a stir plate/hot plate and stirred overnight (for 24 hours) until completely dissolved. After the methylcellulose dissolved, distilled water was added until the volume in the flask reached 3.5 liters. The CX157 was prepared in a 0.5% methylcellulose/Tween 80 mixture to obtain the following dosages 1, 5, and 10 mg/kg. Initially, 52 mg of CX157 was placed in a 7 ml amber vial. A volume of 52 μl of Tween 80 was added to the amber vial containing CX157. A volume of 5.2 ml of methylcellulose was added to this vial to yield a solution of 10 mg/ml; this solution was used to deliver the 10 mg/kg dose. For the 5 mg/kg dose, a 5 mg/ml solution was prepared as follows; a volume of 1 ml of 10 mg/ml stock was mixed with 1 ml of methylcellulose and sonicated until mixed thoroughly. For the 1 mg/kg dose, a 1:10 dilution of the stock dose of 10 mg/ml was performed by pipetting 0.5 ml of 10 mg/ml stock into an amber vial with an addition of 4.5 ml of methylcellulose followed by sonication to disperse the drug into solution. All drugs were then administered on a 1 ml/kg basis with an average volume of 200 μl.",
  "note": "Values joined by “and” are separate entries in the source; they are usually repeats but may differ in a detail not shown here. Equal entries are not always repeated. “Also recorded” adds a separate entry of the source.",
  "data": [
    {"smiles": "O=S1(=O)c2ccc(F)cc2Oc2cc(OCC(F)(F)F)ccc21", "note": "[CX157, 3-fluoro-7(2,2,2-trifluorethoxy)phenoxathiine-10,10-dioxide]", "values": [
      {"measurement": "brain MAO-A activity, % Baseline", "setting": "1 mg/kg oral table, 0 h (baseline)", "result": 100, "unit": "%"},
      {"measurement": "Mean brain MAO-A activity", "setting": "1 mg/kg oral table, 0 h (pooled baseline, N=12)", "result": 4002.0, "unit": "DPM"},
      {"measurement": "mean brain MAO-A activity (Avg.)", "setting": "1 mg/kg oral, 0 h", "result": 3636},
      {"measurement": "Mean brain MAO-A activity", "setting": "1 mg/kg oral, 2 h", "result": 2777.5, "unit": "DPM"},
      {"measurement": "brain MAO-A activity, % Baseline", "setting": "1 mg/kg oral, 2 h", "result": 69, "unit": "%"},
      {"measurement": "mean brain MAO-A activity (Avg.)", "setting": "1 mg/kg oral, 2 h", "result": 2778},
      {"measurement": "Mean brain MAO-A activity", "setting": "1 mg/kg oral, 4 h", "result": 3023.3, "unit": "DPM"},
      {"measurement": "brain MAO-A activity, % Baseline", "setting": "1 mg/kg oral, 4 h", "result": 76, "unit": "%"},
      {"measurement": "mean brain MAO-A activity (Avg.)", "setting": "1 mg/kg oral, 4 h", "result": 3023},
      {"measurement": "Mean brain MAO-A activity", "setting": "1 mg/kg oral, 8 h", "result": 5120.8, "unit": "DPM"},
      {"measurement": "brain MAO-A activity, % Baseline", "setting": "1 mg/kg oral, 8 h", "result": 128, "unit": "%"},
      {"measurement": "mean brain MAO-A activity (Avg.)", "setting": "1 mg/kg oral, 8 h", "result": 5121},
      {"measurement": "Mean brain MAO-A activity", "setting": "1 mg/kg oral, 18 h", "result": 3993.0, "unit": "DPM"},
      {"measurement": "brain MAO-A activity, % Baseline", "setting": "1 mg/kg oral, 18 h", "result": 100, "unit": "%"},
      {"measurement": "brain MAO-A activity, single experimental day", "setting": "1 mg/kg oral, 18 h, Day #1-#4, 1 mg/kg", "result": "5071 and 5019 and 3071 and 2811"},
      {"measurement": "mean brain MAO-A activity (Avg.)", "setting": "1 mg/kg oral, 18 h", "result": 3993},
      {"measurement": "Mean brain MAO-A activity", "setting": "1 mg/kg oral, 24 h", "result": 4883.0, "unit": "DPM"},
      {"measurement": "brain MAO-A activity, % Baseline", "setting": "1 mg/kg oral, 24 h", "result": 122, "unit": "%"},
      {"measurement": "mean brain MAO-A activity (Avg.)", "setting": "1 mg/kg oral, 24 h", "result": 4883},
      {"measurement": "brain MAO-A activity, % Baseline", "setting": "5 mg/kg oral table, 0 h (baseline)", "result": 100, "unit": "%"},
      {"measurement": "Mean brain MAO-A activity", "setting": "5 mg/kg oral table, 0 h (pooled baseline, N=12)", "result": 4002.0, "unit": "DPM"},
      {"measurement": "brain MAO-A activity, single experimental day", "setting": "5 mg/kg oral, 0 h, Day #1-#4, 5 mg/kg", "result": "5661 and 5499 and 3070 and 3687"},
      {"measurement": "mean brain MAO-A activity (Avg.)", "setting": "5 mg/kg oral, 0 h", "result": 4479},
      {"measurement": "Mean brain MAO-A activity", "setting": "5 mg/kg oral, 2 h", "result": 1495.5, "unit": "DPM"},
      {"measurement": "brain MAO-A activity, % Baseline", "setting": "5 mg/kg oral, 2 h", "result": 37, "unit": "%"},
      {"measurement": "mean brain MAO-A activity (Avg.)", "setting": "5 mg/kg oral, 2 h", "result": 1496},
      {"measurement": "Mean brain MAO-A activity", "setting": "5 mg/kg oral, 4 h", "result": 2298.0, "unit": "DPM"},
      {"measurement": "brain MAO-A activity, % Baseline", "setting": "5 mg/kg oral, 4 h", "result": 57, "unit": "%"},
      {"measurement": "mean brain MAO-A activity (Avg.)", "setting": "5 mg/kg oral, 4 h", "result": 2298},
      {"measurement": "Mean brain MAO-A activity", "setting": "5 mg/kg oral, 8 h", "result": 1365.5, "unit": "DPM"},
      {"measurement": "brain MAO-A activity, % Baseline", "setting": "5 mg/kg oral, 8 h", "result": 34, "unit": "%"},
      {"measurement": "mean brain MAO-A activity (Avg.)", "setting": "5 mg/kg oral, 8 h", "result": 1366},
      {"measurement": "Mean brain MAO-A activity", "setting": "5 mg/kg oral, 18 h", "result": 2818.5, "unit": "DPM"},
      {"measurement": "brain MAO-A activity, % Baseline", "setting": "5 mg/kg oral, 18 h", "result": 70, "unit": "%"},
      {"measurement": "mean brain MAO-A activity (Avg.)", "setting": "5 mg/kg oral, 18 h", "result": 2818},
      {"measurement": "Mean brain MAO-A activity", "setting": "5 mg/kg oral, 24 h", "result": 3442.5, "unit": "DPM"},
      {"measurement": "brain MAO-A activity, % Baseline", "setting": "5 mg/kg oral, 24 h", "result": 86, "unit": "%"},
      {"measurement": "mean brain MAO-A activity (Avg.)", "setting": "5 mg/kg oral, 24 h", "result": 3443},
      {"measurement": "brain MAO-A activity, % Baseline", "setting": "10 mg/kg oral table, 0 h (baseline)", "result": 100, "unit": "%"},
      {"measurement": "Mean brain MAO-A activity", "setting": "10 mg/kg oral table, 0 h (pooled baseline, N=12)", "result": 4002.0, "unit": "DPM"},
      {"measurement": "mean brain MAO-A activity (Avg.)", "setting": "10 mg/kg oral, 0 h", "result": 3889},
      {"measurement": "Mean brain MAO-A activity", "setting": "10 mg/kg oral, 2 h", "result": 3805.8, "unit": "DPM"},
      {"measurement": "brain MAO-A activity, % Baseline", "setting": "10 mg/kg oral, 2 h", "result": 95, "unit": "%"},
      {"measurement": "mean brain MAO-A activity (Avg.)", "setting": "10 mg/kg oral, 2 h", "result": 3806},
      {"measurement": "Mean brain MAO-A activity", "setting": "10 mg/kg oral, 4 h", "result": 1893.5, "unit": "DPM"},
      {"measurement": "brain MAO-A activity, % Baseline", "setting": "10 mg/kg oral, 4 h", "result": 47, "unit": "%"},
      {"measurement": "mean brain MAO-A activity (Avg.)", "setting": "10 mg/kg oral, 4 h", "result": 1894},
      {"measurement": "Mean brain MAO-A activity", "setting": "10 mg/kg oral, 8 h", "result": 1034.5, "unit": "DPM"},
      {"measurement": "brain MAO-A activity, % Baseline", "setting": "10 mg/kg oral, 8 h", "result": 26, "unit": "%"},
      {"measurement": "mean brain MAO-A activity (Avg.)", "setting": "10 mg/kg oral, 8 h", "result": 1035},
      {"measurement": "Mean brain MAO-A activity", "setting": "10 mg/kg oral, 18 h", "result": 2149.8, "unit": "DPM"},
      {"measurement": "brain MAO-A activity, % Baseline", "setting": "10 mg/kg oral, 18 h", "result": 54, "unit": "%"},
      {"measurement": "mean brain MAO-A activity (Avg.)", "setting": "10 mg/kg oral, 18 h", "result": 2150},
      {"measurement": "Mean brain MAO-A activity", "setting": "10 mg/kg oral, 24 h", "result": 1711.8, "unit": "DPM"},
      {"measurement": "brain MAO-A activity, % Baseline", "setting": "10 mg/kg oral, 24 h", "result": 43, "unit": "%"},
      {"measurement": "mean brain MAO-A activity (Avg.)", "setting": "10 mg/kg oral, 24 h", "result": 1712},
      {"measurement": "inhibition of brain MAO-A enzyme activity after oral administration", "setting": "oral 1, 5, 10 mg/kg", "result": "dose and time dependent manner; also recorded: dose-dependent and reversible fashion"}
    ]}
  ]
}
